{"source": "patent US20010008638A1", "about": "“N[…] LEAST ONE […] AT LEAST ONE ANTI-ESTROGEN COMPOUND IN A TIME-RELEASE DOSAGE FORM” (priority 1999, published 2001)", "origin": "cited, not measured here", "conditions": "fold more potent than testosterone", "data": [{"smiles": "C[C@]12CCC(=O)C[C@@H]1CC[C@@H]1[C@@H]2CC[C@]2(C)[C@@H](O)CC[C@@H]12", "note": "[DHT, dihydrotestosterone]", "values": [{"measurement": "potency relative to testosterone", "value": "~10", "unit": "times"}]}]}
